{"source": "paper PMC6689975", "about": "“Novel Cell Wall Antifungals Reveal a Special Synergistic Activity in pbr1 Mutants Resistant to the Glucan Synthesis Antifungals Papulacandins and Echinocandins” (Frontiers in Microbiology, 2019)", "test_in_all_cases": "microbe, parasite or virus in culture", "details_in_all_cases": "48 h, read-out: MIC", "key": {"[1]": {"test_system": "Candida albicans C. a.^f (Table 4)", "design": "species or system yeast; tube dilution MIC in YEPD (± 1.2 M sorbitol), complete growth inhibition by turbidity", "protocol": "(§1) Standard YEPD (Yeast Extract, Peptone, Dextrose) ([Sherman, 1990]), YEPD+S (YEPD with 1.2M sorbitol), YES (Yeast Extract, Dextrose and Supplements of Adenine, Histidine, Leucine, Uracil and Lysine) ([Alfa et al., 1993]) and YES+S (YES with 1.2 M sorbitol) ([Ribas et al., 1991]; [Ishiguro et al., 1997]), media were used for determination of MIC values of the tested compounds. A stock solution of 10 mg/ml of each tested compounds was prepared in DMSO and serial dilutions in DMSO were prepared. The final concentration of DMSO was 2% in the YEPD medium. […] The serial dilutions of compounds were dispensed into test tubes with 1 ml of YEPD or YEPD+S to make final concentrations of 200, 100, 50, 25, 12.5, 6.26, 3.125, 1.6, 0.8 and 0.4 μg/ml. The tested yeast strains were previously grown in YEPD, YEPD+S, YES or YES+S agar plates at 30°C for 48 h. For inoculation of YEPD or YEPD+S macro test tubes a suspension of tested fungus was produced with 10^5 cfu/ml (cfu - colony forming unit). 10 μl of suspension was used for inoculation of each tube. After 48 h incubation at 30°C the tubes were checked. The MIC value is the lowest concentration of the tested compound that could inhibit the fungal growth and the medium remained clear. From each tube 10 μl culture was plated on YEPD agar medium to check the contamination. The MIC tests were carried out in three parallels. Micro-culture assays of large numbers of samples were analyzed as described) ([Martins et al., 2011]). Essentially early log-phase cells were grown in YEPD, YEPD+S, YES or YES+S (1.2 M sorbitol) medium at 30°C, and diluted to cell density of 4 X 10^6 cells/ml in YEPD, YEPD+S, YES or YES+S medium and aliquots of 100 μl were dispensed into each small test tube (3 ml test tube size). Then, another 100 μl of YEPD, YEPD+S, YES or YES+S with the corresponding dilution of each compound at 2X concentration (4% DMSO) was added. The final volume was 200 μl, with the cells diluted to of 2 X 10^6 cells/ml and each compound diluted to 1X final concentration, containing increasing concentrations of antifungal (0, 1, 2, 5, 10, 20, 50, 100 and 200 μg/ml) or an equivalent volume of solvent (2% DMSO). The cells were grown at 30°C in an orbital roller and turbidity was analyzed after 24 and 48 h of incubation. The MIC was determined as the minimal concentration of tested compound that produced complete cell growth inhibition and kept the medium clear. The MIC values were calculated from at least three independent experiments."}, "[2]": {"test_system": "T1, Saccharomyces cerevisiae S. c.^d (wild-type CVX12-3A)", "T1 construct": "CVX12-3A", "design": "species or system yeast; tube dilution MIC in YEPD (± 1.2 M sorbitol), complete growth inhibition by turbidity", "protocol": "as §1"}, "[3]": {"test_system": "T2, Schizosaccharomyces pombe S. p.^a (wild-type 972 h-)", "T2 construct": "972 h-", "design": "species or system yeast; tube dilution MIC in YEPD (± 1.2 M sorbitol), complete growth inhibition by turbidity", "protocol": "as §1"}, "[4]": {"test_system": "Candida albicans C. a.^g (Table 4)", "design": "species or system yeast; tube dilution MIC in YEPD (± 1.2 M sorbitol), complete growth inhibition by turbidity", "protocol": "as §1"}, "[5]": {"test_system": "Candida albicans C. a.^h (Table 4)", "design": "species or system yeast; tube dilution MIC in YEPD (± 1.2 M sorbitol), complete growth inhibition by turbidity", "protocol": "as §1"}, "[6]": {"test_system": "Candida albicans C. a.^f (Tables 5, 6)", "design": "species or system yeast; micro tube dilution MIC in YES (± 1.2 M sorbitol), complete growth inhibition by turbidity", "protocol": "as §1, with “h.” for “h. For inoculation of YEPD or YEPD+S macro test tubes a suspension of tested fungus was produced with 10^5 cfu/ml (cfu - colony forming unit). 10 μl of suspension was used for inoculation of each tube. After 48 h incubation at 30°C the tubes were checked. The MIC value is the lowest concentration of the tested compound that could inhibit the fungal growth and the medium remained clear. From each tube 10 μl culture was plated on YEPD agar medium to check the contamination. The MIC tests were carried out in three parallels.”"}, "[7]": {"test_system": "Candida albicans C. a.^g (Table 6)", "design": "species or system yeast; micro tube dilution MIC in YES (± 1.2 M sorbitol), complete growth inhibition by turbidity", "protocol": "as §1, with “h.” for “h. For inoculation of YEPD or YEPD+S macro test tubes a suspension of tested fungus was produced with 10^5 cfu/ml (cfu - colony forming unit). 10 μl of suspension was used for inoculation of each tube. After 48 h incubation at 30°C the tubes were checked. The MIC value is the lowest concentration of the tested compound that could inhibit the fungal growth and the medium remained clear. From each tube 10 μl culture was plated on YEPD agar medium to check the contamination. The MIC tests were carried out in three parallels.”"}, "[8]": {"test_system": "T1, Saccharomyces cerevisiae S. c.^d (wild-type CVX12-3A)", "design": "species or system yeast; micro tube dilution MIC in YES (± 1.2 M sorbitol), complete growth inhibition by turbidity", "protocol": "as §1, with “h.” for “h. For inoculation of YEPD or YEPD+S macro test tubes a suspension of tested fungus was produced with 10^5 cfu/ml (cfu - colony forming unit). 10 μl of suspension was used for inoculation of each tube. After 48 h incubation at 30°C the tubes were checked. The MIC value is the lowest concentration of the tested compound that could inhibit the fungal growth and the medium remained clear. From each tube 10 μl culture was plated on YEPD agar medium to check the contamination. The MIC tests were carried out in three parallels.”"}, "[9]": {"test_system": "T2, Schizosaccharomyces pombe S. p.^a (wild-type 972 h-)", "design": "species or system yeast; micro tube dilution MIC in YES (± 1.2 M sorbitol), complete growth inhibition by turbidity", "protocol": "as §1, with “h.” for “h. For inoculation of YEPD or YEPD+S macro test tubes a suspension of tested fungus was produced with 10^5 cfu/ml (cfu - colony forming unit). 10 μl of suspension was used for inoculation of each tube. After 48 h incubation at 30°C the tubes were checked. The MIC value is the lowest concentration of the tested compound that could inhibit the fungal growth and the medium remained clear. From each tube 10 μl culture was plated on YEPD agar medium to check the contamination. The MIC tests were carried out in three parallels.”"}}, "note": "Read-outs that look alike come from different tables or passages of the source.", "data": [{"smiles": "C[C@@H]1[C@H](O)[C@@H](C)/C=C/C=C/C=C/C=C/C=C/C=C/C=C/[C@H](O[C@@H]2O[C@H](C)[C@@H](O)[C@H](N)[C@@H]2O)C[C@@H]2O[C@](O)(C[C@@H](O)C[C@@H](O)[C@H](O)CC[C@@H](O)C[C@@H](O)CC(=O)O[C@H]1C)C[C@H](O)[C@H]2C(=O)O", "note": "[amphotericin B]", "values": [{"measurement": "MIC", "setting": "[1]", "result": 0.4, "unit": "µg/mL"}, {"measurement": "MIC", "setting": "[2]", "result": 0.2, "unit": "µg/mL"}, {"measurement": "MIC", "setting": "[3]", "result": "< 0.1", "unit": "µg/mL"}, {"measurement": "MIC", "setting": "[4]", "result": 0.8, "unit": "µg/mL"}, {"measurement": "MIC", "setting": "[5]", "result": 0.4, "unit": "µg/mL"}, {"measurement": "MIC", "setting": "[6]", "result": 0.8, "unit": "µg/mL"}, {"measurement": "MIC", "setting": "[7]", "result": 0.4, "unit": "µg/mL"}, {"measurement": "MIC", "setting": "[8]", "result": 0.2, "unit": "µg/mL"}, {"measurement": "MIC", "setting": "[9]", "result": "< 0.1", "unit": "µg/mL"}]}]}
